Earlier results in US20110213558A1, “METHOD FOR PREDICTING ACTIVATION ENERGY USING AN ATOMIC FINGERPRINT DESCRIPTOR OR AN ATOMIC DESCRIPTOR” (Bioinformatics & Molecular Design Research Center, priority 2008, published 2011).
Like-named read-outs stand apart in the source and are kept apart here.

Legend:
[1] = test system: cytochrome P450; settings: in vitro
[2] = test system: cytochrome P450; settings: in vitro; remark: listed apart in the source

Compound | Experimental metabolic rate ([1]; atom # 1) | Experimental metabolic rate ([1]; atom # 2) | Experimental metabolic rate ([2]; atom # 2) | Experimental metabolic rate ([2]; atom # 3) | Experimental metabolic rate ([2]; atom # 4) | Experimental metabolic rate ([1]; atom # 3)
Cc1ccc(CCl)cc1 [1-chloromethyl-4-methyl-benzene] | 16.0 | 84.0 | – | – | – | –
Clc1ccccc1 [Chlorobenzene] | – | – | 17-19 | 5-9 | 71-79 | –
CCc1ccccc1 [Ethylbenzene] | 0.2 | 99.8 | – | – | – | –
CCCCCC [Hexane] | 4.5 | 49 | – | – | – | 46.5
COc1ccccc1 [Methoxybenzene] | – | – | 15-24 | 1-3 | 62-75 | –
CCCCCCCC [Octane] | 2.5 | 97.5 | – | – | – | –
